In the supplement of paper PMC10307832:

Legend:
Assay in all cases: relative viability (nuclei count vs DMSO), 5 days (fraction); higher = more cells survive
Idelalisib + Bortezomib = compound: CC[C@H](Nc1ncnc2[nH]cnc12)c1nc2cccc(F)c2c(=O)n1-c1ccccc1 [Idelalisib] + CC(C)C[C@H](NC(=O)[C@H](Cc1ccccc1)NC(=O)c1cnccn1)B(O)O [Bortezomib] (partner 0.002 µM)
Method in brief: (§1)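 Dosing by pin tool came one day after lung cancer cell lines were seeded in 1536-well plates, using either one drug or a fixed anchor-drug dose plus five library-drug doses (not always all listed) in √10 steps. After 5 days, nuclei were counted on 4× images. Relative viability is treated-well nuclei count divided by vehicle-well nuclei count, and values are medians of duplicate plates.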

Pemetrexed + Linsitinib = compound: Nc1nc2[nH]cc(CCc3ccc(C(=O)N[C@@H](CCC(=O)O)C(=O)O)cc3)c2c(=O)[nH]1 [Pemetrexed] + C[C@]1(O)C[C@@H](c2nc(-c3ccc4ccc(-c5ccccc5)nc4c3)c3c(N)nccn32)C1 [Linsitinib] (partner 1 µM)
Method in brief: as §1

Pemetrexed + OSI-027 = compound: Nc1nc2[nH]cc(CCc3ccc(C(=O)N[C@@H](CCC(=O)O)C(=O)O)cc3)c2c(=O)[nH]1 [Pemetrexed] + COc1cccc2cc(-c3nc([C@H]4CC[C@H](C(=O)O)CC4)n4ncnc(N)c34)[nH]c12 [OSI-027] (partner 0.5 µM)
Method in brief: as §1

Pemetrexed + Pictilisib = compound: Nc1nc2[nH]cc(CCc3ccc(C(=O)N[C@@H](CCC(=O)O)C(=O)O)cc3)c2c(=O)[nH]1 [Pemetrexed] + CS(=O)(=O)N1CCN(Cc2cc3nc(-c4cccc5[nH]ncc45)nc(N4CCOCC4)c3s2)CC1 [Pictilisib] (partner 1 µM)
Method in brief: as §1

In the case of UMC-11, the relative viability (Idelalisib + Bortezomib; first compound 0.04 µM) is reported as 0.477, the relative viability (Idelalisib + Bortezomib; first compound 0.1265 µM) is reported as 0.858 and the relative viability (Idelalisib + Bortezomib; first compound 0.4 µM) is reported as 0.744. The relative viability (Idelalisib + Bortezomib; first compound 1.265 µM) was 0.771, the relative viability (Idelalisib + Bortezomib; first compound 4 µM) was 0.521 and the relative viability (Pemetrexed + Linsitinib; first compound 0.002 µM) was 0.836. For the same cell line, the relative viability (Pemetrexed + Linsitinib; first compound 0.006325 µM) was 1.03, the relative viability (Pemetrexed + Linsitinib; first compound 0.02 µM) was 1.08 and the relative viability (Pemetrexed + Linsitinib; first compound 0.06325 µM) was 0.985. The relative viability (Pemetrexed + Linsitinib; first compound 0.2 µM) was 0.903, the relative viability (Pemetrexed + OSI-027; first compound 0.002 µM) was 0.501 and the relative viability (Pemetrexed + OSI-027; first compound 0.006325 µM) was 0.482. It also gave a relative viability (Pemetrexed + OSI-027; first compound 0.02 µM) of 0.481, a relative viability (Pemetrexed + OSI-027; first compound 0.06325 µM) of 0.522 and a relative viability (Pemetrexed + OSI-027; first compound 0.2 µM) of 0.487. It also gave a relative viability (Pemetrexed + Pictilisib; first compound 0.002 µM) of 0.809, a relative viability (Pemetrexed + Pictilisib; first compound 0.006325 µM) of 0.807 and a relative viability (Pemetrexed + Pictilisib; first compound 0.02 µM) of 0.837. It also gave a relative viability (Pemetrexed + Pictilisib; first compound 0.06325 µM) of 0.781 and a relative viability (Pemetrexed + Pictilisib; first compound 0.2 µM) of 0.556.
